In patent publication US20220073475A1, “5-MEMBERED HETEROARYL COMPOUNDS CONTAINING A HYDROXAMATE MOIETY AND THEIR USE” (UNIVERSITE DE LILLE, priority 2019, published 2022):

Key:
[1] = tested on: TLM1 cells; experiment: X-ray radiation in combination with compound, propidium iodide dead cells, ratio of corrected AUC; assay type: cell-based, canine; conditions: for Potency of X-ray radiations in combination with compound (in words): TLM1; for Activity: ratio of corrected AUC of X-ray radiation in combination with compound / corrected AUC of X-ray radiation alone: TLM1, compound at 30 μM
Experimental: Canine melanoma TLM-1 cells are maintained in DMEM medium supplemented with GlutaMAX™, 10% fetal bovine serum, 1× Hepes and 1% penicillin-streptomycin.
TLM-1 cells were seeded with the BioTek MicroFlo™ dispenser in μClear® black 384-well plates (Greiner) at the density of 20,000 cells/mL in 50 μL. Compounds for pre-treatment were added 2 h after the seeding, using an Echo 550 (Labcyte). The next day, cells were washed five times with 40 μL media without phenol red with a plate washer (Hydrospeed, Tecan). Cells were irradiated with 4, 6, 8, 12, 16, 20 and 24 Gray (Gy). […] This step was repeated every 72 h after radiation. Plates were incubated at 37° C. and 5% CO2. […] 4 images per well were collected. Images were analyzed with Columbus software (Perkin Elmer). In this system we used predefined building blocks to measure different parameters on nuclei detected. We applied a threshold based on propidium iodide intensity in nuclei of controls to select and count dead cells. By dividing the number of dead cells by the number of nuclei detected we obtained the percentage of dead cells. AUC were determined in one experiment with triplicate incubates on percentage of cells labelled with propidium iodide and were corrected by the percentage of cells labelled with propidium iodide at 0 Gy. Ratio of AUC corrected was determined as followed: Activity=(Area of the dose-concentration curve of cytotoxic agent combined with one concentration of compound corrected by the effect of the compound alone at 0Gy)/(Area of the dose-concentration curve of radiation alone corrected by the effect of the vehicle at 0Gy).

[2] = tested on: OPM2 cells; experiment: CFZ potency increase, ratio of CC50 of CFZ alone / with compound; assay type: cell-based, human
From the text: Human multiple myeloma cells OPM2 (ACC 50, DSMZ) are maintained at 0.3-0.7 10^6 cells/mL in RPMI1640 medium supplemented with GlutaMAX™, 10% fetal bovine serum and 1% penicillin-streptomycin.
We developed a cell-based, high content assay allowing the rapid detection and quantification of apoptotic cells. Caspase-3/7 activity was detected in real-time using the NucView™ 488 Caspase-3 substrate (Biotium), where the caspase-3/7 substrate peptide sequence DEVD is attached to a nucleic acid dye. The NucView™ 488 reagent crosses the plasma membrane to enter the cytoplasm, where the dye is unable to bind to DNA and remains non-fluorescent. Once the substrate has been cleaved by activated caspase-3/7 in apoptotic cells, the high-affinity DNA dye is released and migrates to the cell nucleus to stain the nucleus with a bright green fluorescence. All cell nuclei were also labeled with Hoechst 33342 (Ozyme).
For OPM2, briefly, nanoliters of compound and cytotoxic agent in DMSO stock solutions were first transferred and combined in 384-microtiter well plate using an Echo555 liquid handler (Labcyte). The exact volume of each solution to be transferred was calculated to achieve subsequently the target concentration in the 70 μL volume incubate. Final DMSO content was maintained at 0.2%. Then, 70 μL of cells treated with 1 μM NucView™ 488 and 20 ng/mL Hoechst 33342 were distributed to the plates to obtain a final density of 12,000 cells per well. The microplates were incubated at 37° C. and 5% CO2 in an automated LiCONiC STR240 UB cell incubator, and images were acquired at various times at 405 nm and 488 nm with the high-resolution automated confocal microscope INCell 6000 (GE). Four fields per well were read with the 20× objective in a confocal mode. The BioCel workstation was managed by VWorks automation control software
For all cells, Columbus software (Perkin) was used for image quantification and analysis. First, Hoechst 33342 staining was used for an automated detection of nuclei, in which the mean fluorescence intensity for NucView™ 488 was quantified. Inspection of control cells at initial time was used to set a threshold level of NucView™ 488 fluorescence to separate non apoptotic cells from apoptotic cells. Finally, for each well, the result was expressed as percentage of apoptotic cells in the total cell population. CC50 values were calculated from concentration-response curves by a nonlinear regression analysis at four parameters using Excel Fit or GraphPad Prim softwares.
Activity=(% of apoptotic cells with cytotoxic agent in combination with compound of the invention)/(% of apoptotic cells with cytotoxic agent alone). • Ratio of CC50: The CC50 of the cytotoxic agent was calculated in absence and in presence of a compound of the invention.
Activity=(CC50 of agent alone)/(CC50 of agent with compound). • Ratio of AUC. Activity=(Area of the dose-concentration curve of cytotoxic agent combined with one concentration of compound)/(Area of the dose-concentration curve of cytotoxic agent alone). (Lehar J. et al, 2008 (molecular systems biology 4:215)).

[3] = OPM2, compound at 7.5 μM (Table 5)

In the case of `O=C(C[C@@H](Cc1ccc2c(c1)CCCC2)n1cc(CNC(=O)c2ccc(F)c(F)c2)nn1)NO` [Compound 144, (R)-3,4-difluoro-N-((1-(4-(hydroxyamino)-4-oxo-1-(5,6,7,8-tetrahydronaphthalen-2-yl)butan-2-yl)-1H-1,2,3-triazol-4-yl)methyl)benzamide], the “Potency of X-ray radiations in combination with compound (in words)” value (“Potency of X-ray radiations” below) [1] is reported as “increase the potency”, the “Activity: ratio of corrected AUC of X-ray radiation in combination with compound / corrected AUC of X-ray radiation alone” value [1] is reported as 2.4 and the “Activity: ratio (CC50 of CFZ alone)/(CC50 of CFZ in combination with compound of the invention)” value ([2]; OPM2, compound at a concentration of 3.7 μM (Table 5, footnote b)) is reported as 1.8.

In the case of `CC(NC(=O)c1ccc(F)c(F)c1)c1cn([C@@H](CC(=O)NO)Cc2ccc3c(c2)CCCC3)nn1` (stereo partly drawn) [Compound 168, 3,4-difluoro-N-(1-(1-((R)-4-(hydroxyamino)-4-oxo-1-(5,6,7,8-tetrahydronaphthalen-2-yl)butan-2-yl)-1H-1,2,3-triazol-4-yl)ethyl)benzamide], the “Potency of X-ray radiations” value [1] is reported as “increase the potency”, the “Activity: ratio of corrected AUC of X-ray radiation in combination with compound / corrected AUC of X-ray radiation alone” value [1] is reported as 2.4 and the “Activity: ratio (CC50 of CFZ alone)/(CC50 of CFZ in combination with compound of the invention)” value [2, 3] is reported as 2.8.

For `O=C(C[C@@H](Cc1ccc2ccccc2c1)n1cc(C2CSCN2C(=O)c2ccc(F)cc2)nn1)NO` (stereo partly drawn) [Compound 186, (3R)-3-(4-(3-(4-fluorobenzoyl)thiazolidin-4-yl)-1H-1,2,3-triazol-1-yl)-N-hydroxy-4-(naphthalen-2-yl)butanamide], the “Potency of X-ray radiations” value [1] was “increase the potency”, the “Activity: ratio of corrected AUC of X-ray radiation in combination with compound / corrected AUC of X-ray radiation alone” value [1] was 2.0 and the “Activity: ratio (CC50 of CFZ alone)/(CC50 of CFZ in combination with compound of the invention)” value [2, 3] was 2.9.

In the case of `O=C(C[C@@H](Cc1ccc2ccccc2c1)n1cc([C@@H]2CCCN2C(=O)c2ccc(F)c(F)c2)nn1)NO` [Compound 93, (3R)-3-[4-[(2S)-1-(3,4-difluorobenzoyl)pyrrolidin-2-yl]triazol-1-yl]-4-(2-naphthyl)butanehydroxamic acid], the “Potency of X-ray radiations” value [1] is reported as “increase the potency”, the “Activity: ratio of corrected AUC of X-ray radiation in combination with compound / corrected AUC of X-ray radiation alone” value [1] is reported as 1.2 and the “Activity: ratio (CC50 of CFZ alone)/(CC50 of CFZ in combination with compound of the invention)” value [2, 3] is reported as 2.3.

`O=C(C[C@@H](Cc1ccc2ccccc2c1)n1cc(C2CCCCN2C(=O)c2ccc(F)cc2)nn1)NO` (stereo partly drawn) [Compound 187, (3R)-3-(4-(1-(4-fluorobenzoyl)piperidin-2-yl)-1H-1,2,3-triazol-1-yl)-N-hydroxy-4-(naphthalen-2-yl)butanamide] was tested, and the “Potency of X-ray radiations” value [1] was “increase the potency”, the “Activity: ratio of corrected AUC of X-ray radiation in combination with compound / corrected AUC of X-ray radiation alone” value [1] was 2.4 and the “Activity: ratio (CC50 of CFZ alone)/(CC50 of CFZ in combination with compound of the invention)” value [2, 3] was 3.4.

With `CN(Cc1cn([C@@H](CC(=O)NO)Cc2ccc3c(c2)CCCC3)nn1)C(=O)c1ccc(F)c(F)c1` [Compound 169, (R)-3,4-difluoro-N-((1-(4-(hydroxyamino)-4-oxo-1-(5,6,7,8-tetrahydronaphthalen-2-yl)butan-2-yl)-1H-1,2,3-triazol-4-yl)methyl)-N-methylbenzamide] the “Potency of X-ray radiations” value [1] was “increase the potency”, the “Activity: ratio of corrected AUC of X-ray radiation in combination with compound / corrected AUC of X-ray radiation alone” value [1] was 2.5 and the “Activity: ratio (CC50 of CFZ alone)/(CC50 of CFZ in combination with compound of the invention)” value [2, 3] was 3.3.
